{"source": "patent US11578062B2", "about": "“Solid forms of (R)-1(2,2-difluorobenzo[d][1,3]dioxol-5-yl)-N-(1-(2,3-dihydroxypropyl)-6-fluoro-2-(1-hydroxy-2-methylpropan-2-yl)-1H-indol-5-yl)cyclopropanecarboxamide” (Vertex Pharmaceuticals Incorporated, priority 2010, dated 2023)", "target": "T1, ΔF508-CFTR (Homo sapiens, UniProt P13569, DEL508-508)", "T1 construct": "expressed in transfected cells", "T1 sequence (P13569 with tags, fused parts or gaps DEL508-508)": "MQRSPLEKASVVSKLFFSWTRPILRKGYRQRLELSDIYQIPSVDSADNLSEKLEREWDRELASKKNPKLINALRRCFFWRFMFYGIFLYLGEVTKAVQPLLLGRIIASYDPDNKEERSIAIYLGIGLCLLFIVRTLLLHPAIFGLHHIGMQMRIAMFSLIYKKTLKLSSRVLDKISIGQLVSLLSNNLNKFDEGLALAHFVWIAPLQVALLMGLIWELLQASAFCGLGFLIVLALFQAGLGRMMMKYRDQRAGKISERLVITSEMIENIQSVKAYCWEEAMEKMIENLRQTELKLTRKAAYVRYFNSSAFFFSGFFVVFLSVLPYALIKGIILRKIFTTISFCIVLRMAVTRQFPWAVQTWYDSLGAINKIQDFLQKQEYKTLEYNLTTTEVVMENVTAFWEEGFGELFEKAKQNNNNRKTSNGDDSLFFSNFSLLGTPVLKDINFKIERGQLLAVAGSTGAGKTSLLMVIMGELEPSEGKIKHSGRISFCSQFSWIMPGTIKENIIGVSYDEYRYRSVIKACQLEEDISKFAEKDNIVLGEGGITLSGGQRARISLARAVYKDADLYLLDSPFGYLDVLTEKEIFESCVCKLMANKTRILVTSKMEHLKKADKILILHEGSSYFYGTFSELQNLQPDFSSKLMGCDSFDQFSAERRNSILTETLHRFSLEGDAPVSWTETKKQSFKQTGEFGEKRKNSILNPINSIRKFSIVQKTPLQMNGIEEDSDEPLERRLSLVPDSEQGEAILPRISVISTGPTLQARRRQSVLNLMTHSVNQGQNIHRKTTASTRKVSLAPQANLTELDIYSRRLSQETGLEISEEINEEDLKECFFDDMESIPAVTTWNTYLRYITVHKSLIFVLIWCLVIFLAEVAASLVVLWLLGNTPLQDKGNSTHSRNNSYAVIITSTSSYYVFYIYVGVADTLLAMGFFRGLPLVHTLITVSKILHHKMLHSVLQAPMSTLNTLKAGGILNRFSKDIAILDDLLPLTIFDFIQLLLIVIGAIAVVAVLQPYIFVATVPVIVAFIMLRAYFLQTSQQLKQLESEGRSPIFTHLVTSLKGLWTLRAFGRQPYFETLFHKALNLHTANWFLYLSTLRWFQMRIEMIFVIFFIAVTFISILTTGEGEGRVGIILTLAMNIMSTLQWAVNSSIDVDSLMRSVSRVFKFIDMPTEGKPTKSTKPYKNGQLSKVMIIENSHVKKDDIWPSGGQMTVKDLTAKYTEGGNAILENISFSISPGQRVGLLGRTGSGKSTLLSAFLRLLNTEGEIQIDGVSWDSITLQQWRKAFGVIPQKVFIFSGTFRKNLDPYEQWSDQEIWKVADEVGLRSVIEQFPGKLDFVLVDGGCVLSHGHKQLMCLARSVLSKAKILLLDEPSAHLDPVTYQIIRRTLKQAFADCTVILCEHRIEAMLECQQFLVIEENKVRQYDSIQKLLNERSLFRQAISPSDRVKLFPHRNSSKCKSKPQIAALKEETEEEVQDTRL", "assay": "Membrane potential optical assay for ΔF508-CFTR correction (FRET voltage-sensor dyes, VIPR)", "type": "cell-based", "conditions": "PercentActivity; NIH3T3 mouse fibroblasts stably expressing ΔF508-CFTR; procedures described above", "text": "Assays for Detecting and Measuring ΔF508-CFTR Correction Properties of Compounds\nMembrane potential optical methods for assaying ΔF508-CFTR modulation properties of compounds\nThe optical membrane potential assay utilized voltage-sensitive FRET sensors described by Gonzalez and Tsien (See, Gonzalez, J. E. and R. Y. Tsien (1995) “Voltage sensing by fluorescence resonance energy transfer in single cells” Biophys J 69(4): 1272-80, and Gonzalez, J. E. and R. Y. Tsien (1997) “Improved indicators of cell membrane potential that use fluorescence resonance energy transfer” Chem Biol 4(4): 269-77) in combination with instrumentation for measuring fluorescence changes such as the Voltage/Ion Probe Reader (VIPR) (See, Gonzalez, J. E., K. Oades, et al. (1999) “Cell-based assays and instrumentation for screening ion-channel targets” Drug Discov Today 4(9): 431-439).\nThese voltage sensitive assays are based on the change in fluorescence resonant energy transfer (FRET) between the membrane-soluble, voltage-sensitive dye, DiSBAC2(3), and a fluorescent phospholipid, CC2-DMPE, which is attached to the outer leaflet of the plasma membrane and acts as a FRET donor. […] The changes in fluorescence emission were monitored using VIPR™ II, which is an integrated liquid handler and fluorescent detector designed to conduct cell-based screens in 96- or 384-well microtiter plates. […]"}
{"smiles": "CC(C)(CO)c1cc2cc(NC(=O)C3(c4ccc5c(c4)OC(F)(F)O5)CC3)c(F)cc2n1C[C@@H](O)CO", "note": "[Compound 1, (R)-1-(2,2-difluorobenzo[d][1,3]dioxol-5-yl)-N-(1-(2,3-dihydroxypropyl)-6-fluoro-2-(1-hydroxy-2-methylpropan-2-yl)-1H-indol-5-yl)cyclopropanecarboxamide]", "values": [{"measurement": "BinnedMaxEfficacy", "result": "+++ (PercentActivity Bins: + <= 25.0 < ++ <= 100.0 < +++)"}]}
